System: p-ERK pathway in H358 cells
Test: p-ERK pathway inhibition in H358 cells (Advanced phospho-ERK (Thr202/Tyr204) cellular kit, HTRF)
Assay type: cell-based
Conditions: Homo sapiens, NCI-H358, 1 h compound incubation
Procedure: The effect of the compounds of the present invention on H358 cell p-ERK pathway was assessed by Advanced phospho-ERK (Thr202/Tyr204) cellular kit method.
The experimental procedures were summarized as follows: H358 cells (ATCC, CRL-5807) were cultured in RPMI1640 (ThermoFisher, A1049101) complete medium containing 10% FBS (Gibco, 10100147) and 100 U/mL penicillin-streptomycin mixed solution (Gibco, 15140163). When the coverage of the cells in the culture vessel reached 80-90%, the cells were pipetted and seeded in a 96-well plate (Corning, 3599) at 50000 cells/well (90 µL RPMI1640 complete medium), and the plate was left to stand for 5 min, cultured in an incubator at 37 °C with 5% CO2 for 6 h, replaced with a serum-free RPMI1640, and starved overnight.
After incubation overnight, 10 µL of a diluted test compound was added to each well using a multi-channel pipette, and the 96-well plate was cultured in an incubator at 37 °C with 5% CO2 for 1 h. The supernatant was poured. The cells were washed once with PBS. 50 µL of a lysis buffer (Advanced phospho-ERK (Thr202/Tyr204) cellular kit, 64AERPEH) was added to each well. The plate was shaken at room temperature at 450 rpm for 1 h. After the cells were completely lysed, 16 µL of the supernatant was added to a 384-well plate (PE, 6007299), mixed energy donor Eu and energy acceptor D2 (D2/Eu = 1:1) were added, and the plate was incubated at room temperature for 4 h. HTRF on the microplate reader was selected for plate reading, Ratio = Signal 665 nm/Signal 620 nm × 10^4. In this experiment, the cell-free group (replaced with 1640 medium) was used as the 100% inhibition group, and the compound-free group in which the cell was added was used as the 0% inhibition group.
The inhibition percentage of H358 cell p-ERK pathway by the compounds of the present invention could be calculated by the following formula: [formula]
IC50 values of the compounds were calculated from 8 concentration points using XLfit (ID Business Solutions Ltd., UK) software by the following formula: Y = Bottom + (Top−Bottom)/(1+10^(∧)((logIC50−X)×slopefactor)) [formula]
Y is the inhibition percentage, X is the logarithmic value of the concentration of the test compound, Bottom is the minimum inhibition percentage, Top is the maximum inhibition percentage, and slope factor is the slope coefficient of the curve. The default fitted curve was used to fit the slope of the S-shaped curve to determine the IC50 value. Table 2. Results of p-ERK inhibition test by the compounds of the present invention

Row | Structure (SMILES) | IC50 [nM]
1 | Cc1nc(N[C@H](C)c2cccc(C(F)F)c2F)c2cn(C3(CF)CC3)c(=O)c(C(F)(F)F)c2n1 [Example 2, (R)-4-((1-(3-(difluoromethyl)-2-fluorophenyl)ethyl)amino)-6-(1-(fluoromethyl)cyclopropyl)-2-methyl-8-(trifluoromethyl)pyrido[4,3-d]pyrimidine-7(6H)-one] | 127
2 | COc1c(=O)n(C2(CF)CCN(C(C)=O)C2)cc2c(N[C@H](C)c3cccc(C(F)F)c3F)nc(C)nc12 (stereo partly drawn) [Example 8, 6-(1-acetyl-3-(fluoromethyl)pyrrolidin-3-yl)-4-(((R)-1-(3-(difluoromethyl)-2-fluorophenyl)ethyl)amino)-8-methoxy-2-methylpyrido[4,3-d]pyrimidine-7(6H)-one] | 92.9
3 | COc1c(=O)n(C2(CF)CCN(C(C)=O)C2)cc2c(N[C@H](C)c3cccc(C#N)c3C)nc(C)nc12 (stereo partly drawn) [Example 17, 3-((1R)-1-((6-(1-acetyl-3-(fluoromethyl)pyrrolidin-3-yl)-8-methoxy-2-methyl-7-oxo-6,7-dihydropyrido[4,3-d]pyrimidin-4-yl)amino)ethyl)-2-methylbenzonitrile] | 33.7
4 | Cc1nc(N[C@H](C)c2cccc(S(F)(F)(F)(F)F)c2)c2cn(N3CCOCC3)c(=O)cc2n1 [Example 18, (R)-2-methyl-6-morpholine-4-((1-(3-(pentafluoro-λ^6-sulfanyl)phenyl)ethyl)amino) pyrido[4,3-d]pyrimidine-7(6H)-one] | 79.8
5 | COc1c(=O)n(N2CCOCC2)cc2c(N[C@H](C)c3cccc([N+](=O)[O-])c3C)nc(C)nc12 [Example 24, (R)-4-((1-(2-methyl-3-nitrophenyl)ethyl)amino)-8-methoxy-2-methyl-6-morpholinepyrido[4,3-d]pyrimidine-7(6H)-one] | 70.4
6 | Cc1nc(N[C@H](C)c2cccc(C(F)F)c2F)c2cn(C3(CF)CC3)c(=O)c(N3C4CCC3COC4)c2n1 [Example 44, 8-(3-oxa-8-azabicyclo[3.2.1]oct-8-yl)-4-(((R)-1-(3-(difluoromethyl)-2-fluorophenyl)ethyl)amino)-6-(1-(fluoromethyl)cyclopropyl)-2-methylpyrido[4,3-d]pyrimidine-7(6H)-one] | 131
7 | Cc1nc(N[C@H](C)c2cccc(C(F)F)c2F)c2cn(C3(CF)CC3)c(=O)c(N3C[C@H]4C[C@@H]3CO4)c2n1 [Example 53, 8-((1R,4R)-2-oxa-5-azabicyclo[2.2.1]heptan-5-yl)-4-(((R)-1-(3-(difluoromethyl)-2-fluorophenyl)ethyl)amino)-6-(1-(fluoromethyl)cyclopropyl)-2-methylpyrido[4,3-d]pyrimidine-7(6H)-one] | 176
8 | Cc1nc(N[C@H](C)c2cccc(C(F)F)c2F)c2cn(C3(CF)CC3)c(=O)c(N3C[C@H]4CC[C@@H](C3)O4)c2n1 [Example 54, 8-((1R,5S)-8-oxa-3-azabicyclo[3.2.1]octan-3-yl)-4-(((R)-1-(3-(difluoromethyl)-2-fluorophenyl)ethyl)amino)-6-(1-(fluoromethyl)cyclopropyl)-2-methylpyrido[4,3-d]pyrimidine-7(6H)-one] | 124
9 | Cc1nc(N[C@H](C)c2cccc(C(F)F)c2F)c2cn(C3(CF)CC3)c(=O)c(N3CC(C)(C#N)C3)c2n1 [Example 75, (R)-1-(4-((1-(3-(difluoromethyl)-2-fluorophenyl)ethyl)amino)-6-(1-(fluoromethyl)cyclopropyl)-2-methyl-7-oxo-6,7-dihydropyrido[4,3-d]pyrimidin-8-yl)-3-methylazetidine-3-carbonitrile] | 171
10 | CNc1c(=O)n(C2(CF)CC2)cc2c(N[C@H](C)c3cccc(C(F)F)c3F)nc(C)nc12 [Example 77] | 77.2
11 | Cc1nc(N[C@H](C)c2cccc(C(F)F)c2F)c2cn(N3CCOCC3)c(=O)c(N3CCO[C@@H](C)C3)c2n1 [Example 79] | 79.3
12 | Cc1nc(N[C@H](C)c2cccc(S(F)(F)(F)(F)F)c2)c2cn(N3CCOCC3)c(=O)c(N3CCOCC3)c2n1 [Example 81, (R)-2-methyl-6,8-dimorpholine-4-((1-(3-(pentafluoro-λ^6-sulfanyl)phenyl)ethyl)amino)pyrido[4,3-d]pyrimidine-7(6H)-one] | 77
13 | Cc1nc(N[C@H](C)c2cccc(C(F)F)c2F)c2cn(C3(CF)CC3)c(=O)c(Nc3cnn(C)c3)c2n1 [Example 93, (R)-4-((1-(3-(difluoromethyl)-2-fluorophenyl)ethyl)amino)-6-(1-(fluoromethyl)cyclopropyl)-2-methyl-8-((1-methyl-1H-pyrazol-4-yl)amino)pyrido[4,3-d]pyrimidine-7(6H)-one] | 90.3
14 | Cc1nc(N[C@H](C)c2cccc(C#N)c2C)c2cn(N3CCOCC3)c(=O)c(N3CCN4C(=O)OC[C@H]4C3)c2n1 [Example 99, 2-methyl-3-((R)-1-((2-methyl-6-morpholine-7-oxo-8-((R)-3-oxotetrahydro-3H-oxazolo[3,4-a]pyrazin-7(1H)-yl)-6,7-dihydropyrido[4,3-d]pyrimidin-4-yl)amino)ethyl)benzonitrile] | 112
15 | Cc1nc(N[C@H](C)c2cccc(C(F)F)c2F)c2cn(C3(CF)CC3)c(=O)c(-n3cc(C#N)cn3)c2n1 [Example 101, (R)-1-(4-((1-(3-(difluoromethyl)-2-fluorophenyl)ethyl)amino)-6-(1-(fluoromethyl)cyclopropyl)-2-methyl-7-oxo-6,7-dihydropyrido[4,3-d]pyrimidin-8-yl)-1H-pyrazole-4-carbonitrile] | 50.1
16 | Cc1nc(N[C@H](C)c2cccc(C(F)F)c2F)c2cn(C3(CF)CC3)c(=O)c(NC[C@@H]3CCO3)c2n1 [Example 105, 4-(((R)-1-(3-(difluoromethyl)-2-fluorophenyl)ethyl)amino)-6-(1-(fluoromethyl)cyclopropyl)-2-methyl-8-((((S)-oxetan-2-yl)methyl)amino)pyrido[4,3-d]pyrimidine-7(6H)-one] | 98.4
17 | Cc1nc(N[C@H](C)c2cccc(C(F)F)c2F)c2cn(C3(CF)CC3)c(=O)c(N3Cc4cn(C5CC5)nc4C3)c2n1 [Example 106] | 48.4
18 | Cc1nc(N[C@H](C)c2cccc(C(F)F)c2F)c2cn(C3(CF)CC3)c(=O)c(N3C[C@@H](F)[C@@H](F)C3)c2n1 [Example 107, 4-(((R)-1-(3-(difluoromethyl)-2-fluorophenyl)ethyl)amino)-8-((3S,4R)-3,4-difluoropyrrolidin-1-yl)-6-(1-(fluoromethyl)cyclopropyl)-2-methylpyrido[4,3-d]pyrimidine-7(6H)-one] | 46.9
19 | Cc1nc(N[C@H](C)c2cccc(C(F)F)c2F)c2cn(C3(CF)CC3)c(=O)c(N3CC(S(C)(=O)=O)C3)c2n1 [Example 111, (R)-4-((1-(3-(difluoromethyl)-2-fluorophenyl)ethyl)amino)-6-(1-(fluoromethyl)cyclorol-2-methyl-8-3-methylsulfonylazetidin-1-yl)pyrido[4,3-d]pyrimidine-7(6H)-one] | 110
20 | Cc1nc(N[C@H](C)c2cccc(C(F)F)c2F)c2cn(N3CCOCC3)c(=O)c(OCC3(C)COC3)c2n1 [Example 121, (R)-4-((1-(3-(difluoromethyl)-2-fluorophenyl)ethyl)amino)-2-methyl-8-((3-methloxetan-3-yl)methoxy)-6-morpholinylpyrido[4,3-d]pyrimidine-7(6H)-one] | 107
21 | Cc1nc(N[C@H](C)c2cccc(C(F)F)c2F)c2cn(C3(CF)CC3)c(=O)c(-c3c(C)noc3C)c2n1 [Example 123, (R)-4-((1-(3-(difluoromethyl)-2-fluorophenyl)ethyl)amino)-8-(3,5-dimethylisoxazol-4-yl)-6-(1-(fluoromethyl)cyclopropyl)-2-methylpyrido[4,3-d]pyrimidine-7(6H)-one] | 111
22 | Cc1nc(N[C@H](C)c2cccc(C(F)F)c2F)c2cn(C3(CF)CC3)c(=O)c(-c3cnc4cnn(C)c4c3)c2n1 [Example 129, (R)-4-((1-(3-(difluoromethyl)-2-fluorophenyl)ethyl)amino)-6-(1-(fluoromethyl)cyclopropyl)-2-methyl-8-(1-methyl-1H-pyrazolo[4,3-b]pyridin-6-yl)pyrido[4,3-d]pyrimidine-7(6H)-one] | 127
23 | Cc1nc(N[C@H](C)c2cccc(C(F)F)c2F)c2cn(C3(CF)CC3)c(=O)c(N3CCN(CC#N)CC3)c2n1 [Example 134, (R)-2-(4-(4-((1-(3-(difluoromethyl)-2-fluorophenyl)ethyl)amino)-6-(1-(fluoromethyl)cyclopropyl)-2-methyl-7-oxo-6,7-dihydropyrido[4,3-d]pyrimidin-8-yl)piperazin-1-yl)acetonitrile] | 49.1

— EP4417607A1, “HETEROCYCLIC COMPOUND AS SOS1 INHIBITOR AND USES THEREOF” (Nanjing Zaiming Pharmaceutical Co., Ltd., priority 2021, dated 2023)
